System: PLK-1
Experiment: qPCR splicing analysis, PLK-1 exon skipping / RNA expression
Format: cell-based, human
Conditions: for PLK-1 RNA expression: HCT116, 24 h, 100, 250, 500 nM
Description: HCT116 tumor cells were treated with each analogue at 20 times the G150 value (Table 12) for 4 hours and then cellular RNA was isolated and purified for qPCR. Primers were designed to evaluate intron retention or exon skipping, direct responses to splice modulator treatment. Genes evaluated included those involved in splicing regulation (SF3A1, SF3A3, SF3B1, SF3B2), apoptosis (MCL-1L), protein folding (DNAJB1), and cell cycle regulation (AURKA, PLK-1) relative to the unspliced control GAPDH. For alternative splicing regulator (SF2), primers were designed to evaluate gene expression, which changes in response splice modulator treatment for SF2 relative to the unspliced control GAPDH. (−) denotes untreated cells.
Next, we turned our efforts to explore the ability of these analogues to modulate splicing. […] We treated cells for 4 h so that we could evaluate early changes in splicing activity, and then cellular RNA was isolated and purified for analyses by qPCR (FIG. 14). Most importantly, none of the concentrations tested led to significant changes in cell viability, ensuring that changes in gene expression were not due to cell death.
For these studies, we evaluated the expression of genes involved in splicing regulation (SF3A1, SF3A3, SF3B1, SF3B2), apoptosis (MCL-1L), protein folding (DNAJB1), and cell cycle regulation (AURKA, PLK-1) relative to the unspliced control GAPDH. Primers were designed to evaluate intron retention or exon skipping, direct responses to splice modulator treatment. The master splicing regulator alternative splicing factor (SF2) was also evaluated, with the primers for this gene designed to evaluate overall gene expression, which changes in response to splice modulator treatment.
From this 4 h study (FIG. 14), a small set of analogs (1, 1b, 1g, 1d, 1e, 1i and 1j) were selected to evaluate if effects on splicing when presented for a longer 24 h period. […] Using identical procedures as that used for 4 h, HCT116 cells were treated with three concentrations (100 nM, 250 nM and 500 nM) of each analog for 24 h. Multiple concentrations were used as a means to check further validate the use of the GI50 concentration in our prior study (FIG. 14). As before, none of the concentrations tested led to significant changes in cell viability over the 24-hour time window, ensuring that changes in gene expression were not due to cell death.
Cells were treated with 1 or 1a-1j in media (McCoy's 5a (Life Technologies) supplemented with 10% FBS, 2 mM L-glutamine, and 100 U mL^−1 of penicillin and 100 μg mL^−1 of streptomycin 0.5% DMSO) for 4 h or 24 h. Untreated cells were considered were used as negative control. Total RNA was isolated using mirVana miRNA isolation kit (Life Technologies). A 1 μg sample of RNA was subjected to DNAseI from a TURBO DNA free kit (Life Technologies). […] The amount of unspliced RNA for different genes was determined using Power SYBR Green PCR master mix (Applied Biosystems) by qPCR using specific primers for each gene. qPCR using 2.5 μM of each primer was performed on 5 ng of the obtained cDNA. qPCR conditions were as follows: 95° C. for 10 min for one cycle, then 95° C. for 10 min for one cycle, then 95° C. for 30 s, 55° C. for 60 s, 72° C. for 60 s, for 40 cycles using the MXPro. Quantification cycle (Cq) values were identified for each sample, and then RNA levels were calculated using 2-ΔΔCT method. […] Namely, all genes explored in this study were evaluated from the same cell cultures. […]

Row | SMILES | PLK-1 RNA expression | effect on exon 3 inclusion in PLK-1 (HCT116, 4 h, 20 times GI50, qPCR)
1 | CC[C@H](OC)[C@@H](C)[C@H]1O[C@@H]1[C@@H](O)[C@H](C)/C=C/C=C(\C)[C@H]1OC(=O)C[C@H](O)CC[C@@](C)(O)[C@@H](OC(C)=O)/C=C/[C@@H]1C [Analog 1d, 17S-FD-895] | decreased effect at reducing | –
2 | CC[C@H](OC)[C@@H](C)[C@H]1O[C@@H]1[C@@H](O)[C@H](C)/C=C/C=C(\C)[C@H]1OC(=O)C[C@@H](O)CC[C@@](C)(O)[C@@H](OC(C)=O)/C=C/[C@@H]1C [Analog 1g, 3S,17S-FD-895] | reduced PLK-1 RNA expression | most potent effect
3 | CC[C@H](OC)[C@@H](C)[C@@H]1O[C@H]1[C@@H](O)[C@H](C)/C=C/C=C(\C)[C@H]1OC(=O)C[C@H](O)CC[C@@](C)(O)[C@@H](OC(C)=O)/C=C/[C@@H]1C [Analog 1i, 17S,18S,19S-FD-895] | increased the RNA expression relative to negative controls | –

From US12172988B2, “Anticancer and antifungal splice modulators” (priority 2021, dated 2024)
